Laboratory results taken from patent US8633204B2 (Pfizer Inc., priority 2006, dated 2014).

Legend:
[1] = system: PI3-K in BT20 cells (phosphorylation of AKT at serine 473); experiment: PI3-Kα Cellular Assay (AKT Ser473 phosphorylation ELISA in BT20 cells); type: cell-based, human; conditions: 1 hour incubation
Method in brief: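 Cells seeded overnight in 0.5% FBS, then exposed 1 h at 37 °C to an 11-concentration 1:3 dilution series, in duplicate.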

PI3-Kα = PI3-Kα (Mus musculus (Mouse), UniProt P42337); experiment: PI3-Kα Biochemical Assay (fluorescence polarization kinase assay)
Method in brief: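 Co-expressed mouse p110/p85 PI3-Kα (4 nM stock) acting on PI(4,5)P2 (60 μM stock) with ATP/MgCl2 in HEPES pH 7.4 buffer, 35 min at room temperature, then EDTA stop. PI(3,4,5)P3 product detected by displacement of TAMRA-PIP3 from Grip1 PH domain (FP, 535/580 nm). IC50 from sigmoidal fit of % inhibition.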

[2] = Homo sapiens, BT-20, pAKT Ser473 ELISA

Chain of PI3-Kα (P42337 whole entry, the tested form may be a part): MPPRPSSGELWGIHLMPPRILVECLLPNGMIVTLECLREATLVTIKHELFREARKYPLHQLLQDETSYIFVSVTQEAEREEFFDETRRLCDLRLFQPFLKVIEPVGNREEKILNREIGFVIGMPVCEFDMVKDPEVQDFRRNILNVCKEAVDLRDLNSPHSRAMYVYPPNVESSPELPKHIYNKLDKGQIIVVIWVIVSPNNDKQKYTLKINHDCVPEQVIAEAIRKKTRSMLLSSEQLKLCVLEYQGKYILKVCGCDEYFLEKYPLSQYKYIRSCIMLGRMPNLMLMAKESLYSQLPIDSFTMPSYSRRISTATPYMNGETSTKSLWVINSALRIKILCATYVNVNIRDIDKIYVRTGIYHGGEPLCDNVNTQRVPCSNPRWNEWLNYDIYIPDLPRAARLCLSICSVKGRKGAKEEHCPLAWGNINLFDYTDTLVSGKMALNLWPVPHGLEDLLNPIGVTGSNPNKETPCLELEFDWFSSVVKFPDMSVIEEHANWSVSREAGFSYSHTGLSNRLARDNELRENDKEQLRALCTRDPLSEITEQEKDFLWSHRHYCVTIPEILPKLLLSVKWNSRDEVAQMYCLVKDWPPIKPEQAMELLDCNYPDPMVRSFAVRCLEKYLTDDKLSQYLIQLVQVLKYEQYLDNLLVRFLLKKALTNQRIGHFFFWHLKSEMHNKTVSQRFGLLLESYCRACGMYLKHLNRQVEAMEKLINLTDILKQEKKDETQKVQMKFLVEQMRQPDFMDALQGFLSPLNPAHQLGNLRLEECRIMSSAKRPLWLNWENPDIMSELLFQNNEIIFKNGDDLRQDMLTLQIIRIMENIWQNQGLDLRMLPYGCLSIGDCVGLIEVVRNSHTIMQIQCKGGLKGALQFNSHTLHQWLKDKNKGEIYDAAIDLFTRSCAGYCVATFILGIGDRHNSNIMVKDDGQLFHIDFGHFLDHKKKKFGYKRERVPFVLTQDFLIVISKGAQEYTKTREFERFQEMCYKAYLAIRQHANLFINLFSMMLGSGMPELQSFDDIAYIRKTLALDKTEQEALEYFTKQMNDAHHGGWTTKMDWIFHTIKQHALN
Chain of PI3-Kα (P26450 whole entry partner, the tested form may be a part): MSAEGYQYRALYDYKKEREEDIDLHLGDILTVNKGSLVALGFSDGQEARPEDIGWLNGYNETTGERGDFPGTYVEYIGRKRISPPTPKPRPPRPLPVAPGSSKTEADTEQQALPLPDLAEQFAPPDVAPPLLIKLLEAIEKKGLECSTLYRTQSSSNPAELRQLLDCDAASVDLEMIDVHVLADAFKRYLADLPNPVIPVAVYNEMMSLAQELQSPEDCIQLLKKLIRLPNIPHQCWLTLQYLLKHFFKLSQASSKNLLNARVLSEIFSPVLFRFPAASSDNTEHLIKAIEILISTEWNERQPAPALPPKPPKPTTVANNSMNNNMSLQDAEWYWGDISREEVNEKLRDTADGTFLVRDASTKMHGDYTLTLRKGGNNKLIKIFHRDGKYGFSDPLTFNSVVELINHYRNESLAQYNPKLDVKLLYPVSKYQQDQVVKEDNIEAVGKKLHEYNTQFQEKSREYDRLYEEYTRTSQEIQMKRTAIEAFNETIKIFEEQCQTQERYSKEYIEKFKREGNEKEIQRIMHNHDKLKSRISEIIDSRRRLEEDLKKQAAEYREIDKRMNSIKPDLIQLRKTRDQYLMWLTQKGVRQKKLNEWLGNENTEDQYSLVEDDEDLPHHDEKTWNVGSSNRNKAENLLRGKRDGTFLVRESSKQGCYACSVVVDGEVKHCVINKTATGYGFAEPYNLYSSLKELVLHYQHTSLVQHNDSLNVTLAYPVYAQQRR

SMILES | IC50 [1, 2] | IC50 (PI3-Kα) | IC50 ([1]; pAKT Ser473 ELISA)
CNc1nc(C)c2cc(-c3cnn(C)c3)c(=O)n(C3CCCC3)c2n1 [Compound 234, 8-Cyclopentyl-4-methyl-2-methylamino-6-(1-melhyl-1H-pyrazol-4-yl)-8H-pyrido[2,3-d]pyrimidin-7-one] | 314 nM | 39 nM | –
CNc1nc(C)c2cc(-c3cnn(CC(F)F)c3)c(=O)n(C3CCCC3)c2n1 [Compound 236, 8-Cyclopentyl-6-[1-(2,2-difluoro-ethyl)-1H pyrazol-4-yl]-4-methyl 2-methylamino-8H-pyrido[2,3 d]pyrimidin-7-one] | 10000 nM | 46 nM | –
Cc1nc(N)nc2c1cc(-c1cnn(CC(F)F)c1)c(=O)n2C1CCCC1 [Compound 237, 2-Amino-8-cyclopentyl-6-[1-(2,2-drfluoro-ethyl)-1H-pyrazol-4-yl]-4-methyl 8H-pyrido[2,3-d]pyrimidin-7-one] | 397 nM | 12 nM | –
COc1ccc(-c2cc3c(C)nc(N)nc3n(CCN)c2=O)cn1 [Compound 238, 2-Amino-8-(2-amino-ethyl)-6-(6-methoxy-pyridin-3-yl)-4-methyl-8H-pyrido[2,3-d]pyrimidin-7-one] | 4530 nM | 340 nM | –
Cc1nc(N)nc2c1cc(-c1cnn(CC(C)(C)O)c1)c(=O)n2C1CCCC1 [Compound 240, 2-Amino-8-cyclopentyl-6-[1-(2-hydroxy-2-methyl-propyl)-1H-pyrazol-4-yl]-4-methyl-8H-pyrido[2,3-d]pyrimidin-7-one] | 101 nM | 89 nM | –
COc1ccc(-c2cc3c(C)nc(N)nc3n(CC3CCOCC3)c2=O)cn1 [Compound 242, 2-Amino-6-(6-methoxy-pyridin-3-yl)-4-methyl-8-(tetrahydro-pyran-4-ylmethyl)-8H-pyrido[2,3-d]pyrimidin-7-one] | 88.4 nM | 15 nM | –
COc1ccc(-c2cc3c(C)nc(N)nc3n(CC3(F)CCOCC3)c2=O)cn1 [Compound 243, 2-Amino-8-(4-fluoro-tetrahydro-pyran-4-ylmethyl)-6-(6-methoxy-pyridin-3-yl)-4-methyl-8H-pyrido[2,3-d]pyrimidin 7-one] | 316 nM | 18 nM | –
COc1ccc(-c2cc3c(C)nc(N)nc3n(CC(C)(C)F)c2=O)cn1 [Compound 244, 2-Amino-8-(2-fluoro-2-methyl-propyl)-6-(6-methoxy-pyridin-3-yl)-4-methyl-8H-pyrido[2,3-d]pyrimidin-7-one] | 437 nM | 30 nM | –
CNc1nc(C)c2cc(-c3c[nH]c(C)n3)c(=O)n(C3CCCC3)c2n1 [Compound 245, 8-Cyclopentyl-4-methyl-2-methylamino-6-(2-methyl-1H-imidazol-4-yl)-8H-pyrido[2,3-d]pyrimidin-7-one] | 181 nM | 67 nM | –
COc1ccc(-c2cc3c(C)nc(N)nc3n(C3CCN(C(=O)OC(C)(C)C)C3)c2=O)cn1 (stereo not shown) [Compound 246, 3-[2-Amino-6-(6-methoxy-pyridin-3-yl)-4-methyl-7-oxo-7H-pyrido[2,3-d]pyrimidin 8-yl]-pyrrolidine-1-carboxylic acid tert-butyl ester] | 172 nM | 27 nM | –
COc1ccc(-c2cc3c(C)nc(N)nc3n(C3CCNC3)c2=O)cn1 (stereo not shown) [Compound 247, 2-Amino-6-(6-methoxy-pyridin-3-yl)-4-methyl-8-pyrrolidin-3-yl-8H-pyrido[2,3-d]pyrimidin-7-one] | 671 nM | 200 nM | –
COc1ccc(-c2cc3c(C)nc(N)nc3n(C3CCN(C(C)=O)C3)c2=O)cn1 (stereo not shown) [Compound 248, 8-(1-Acetyl-pyrrolidin-3-yl)-2-amin-6-(6-methoxy-pyridin-3-yl)-4-methyl-8H-pyrido[2,3-d]pyrimidin-7-one] | 127 nM | 7 nM | –
CNc1nc(C)c2cc(C(=O)Nc3cc[nH]n3)c(=O)n(C3CCCC3)c2n1 [Compound 250, 8-Cyclopentyl-4-methyl-2-methylamino-7-oxo-7,8-dihydro-pyrido[2,3-d]pyrimidine-6-carboxylic acid (1H-pyrazol-3-yl)-amide] | 16.4 nM | 2.34 nM | –
Cc1nc(N)nc2c1cc(C(=O)Nc1ccn[nH]1)c(=O)n2[C@H]1CC[C@H](O)CC1 [Compound 251, 2-Amino-8-(trans-4-hydroxycyclohexyl)-4-methyl-7-oxo-N-1H-pyrazol-5-yl-7,8-dihydropyrido[2,3-d]pyrimidine-6-carboxamide] | 28.3 nM | 0.59 nM | –
Cc1nc(N)nc2c1cc(-c1ccc(N3CCCC3)nc1)c(=O)n2[C@H]1CC[C@H](O)CC1 [Compound 253, 2-amino-8-(trans-4-hydroxycyclohexyl)-4-methyl-6-(6-pyrrolidin-1-ylpyridin-3-yl)pyrido[23-d]pyrimidin-7(8H)-one] | 4.92 nM | 19 nM | –
COc1ncc(-c2cc3c(C)nc(N)nc3n(C3CCCC3)c2=O)cn1 [Compound 255, 2-amino-8-cyclopentyl-6-(2-methoxypyrimidin-5-yl)-4-methylpyrido[23-d]pyrimidin-7(8H)-one] | 9.57 nM | 2 nM | –

SMILES | IC50 [1, 2] | IC50 (PI3-Kα) | IC50 ([1]; pAKT Ser473 ELISA)
Cc1nc(N)nc2c1cc(-c1cccc(CO)c1)c(=O)n2C1CCCC1 [Compound 256] | – | 3.1 nM | 20.2 nM
Cc1cc(-c2cc3c(C)nc(N)nc3n(C3CCCC3)c2=O)cnc1N(C)C [Compound 257, 2-amino-8-cyclopentyl-6-[6-(dimethylamino)-5-methylpyridin-3-yl]-4-methylpyrido[23-d]pyrimidin-7(8H)-one] | 23.1 nM | 11 nM | –
Cc1nc(N)nc2c1cc(-c1ccc(N3CCCC3)nc1)c(=O)n2C1CCCC1 [Compound 258, 2-amino-8-cyclopentyl-4-methyl-6-(6-pyrrolidin-1-ylpyridin-3-yl)pyrido[23-d]pyrimidin-7(8H)-one] | 26.5 nM | 88 nM | –
COc1ncc(-c2cc3c(C)nc(N)nc3n(C3CCOCC3)c2=O)cn1 [Compound 259, 2-amino-6-(2-methoxypyrimidin-5-yl)-4-methyl-8-(tetrahydro-2H-pyran-4-yl)pyrido[23-d]pyrimidin-7(8H)-one] | 26.7 nM | 45 nM | –
Cc1nc(N)nc2c1cc(-c1cccc(CO)c1)c(=O)n2C1CCOCC1 [Compound 260, 2-amino-6-[3-(hydroxymethyl)phenyl]-4-methyl-8-(tetrahydro-2H-pyran-4-yl)pyrido[23-d]pyrimidin-7(8H)-one] | 33.2 nM | 3.9 nM | –
COc1ccc(-c2cc3c(C)nc(N)nc3n(C3CCCC3)c2=O)cc1F [Compound 262, 2-amino-8-cyclopentyl-6-(3-fluoro-4-methoxyphenyl)-4-methylpyrido[23-d]pyrimidin-7(8H)-one] | 45.9 nM | 15 nM | –
CCN(CC)C(=O)OCn1cc(-c2cc3c(C)nc(N)nc3n(C(C)C)c2=O)nn1 [Compound 263, (4-(2-Amino-8-isopropyl-4-methyl-7-oxo-7,8-dihydropyrido[2,3-d]pyrimidin-6-yl)-1H-1,2,3-triazol-1-yl)methyl diethylcarbamate] | 10000 nM | 3300 nM | –
Cc1nc(N)nc2c1cc(-c1c[nH]nn1)c(=O)n2C(C)C [Compound 264, 2-Amino-8-isopropyl-4-methyl-6-(1H-1,2,3-triazol-4-yl)pyrido[2,3-d]pyrimidin-7(8H)-one] | 556 nM | 62 nM | –
COc1ncc(-c2cc3c(C)nc(N)nc3n(C(C)C)c2=O)cn1 [Compound 266, 2-amino-8-isopropyl-6-(2-methoxypyrimidin-5-yl)-4-methylpyrido[2,3-d]pyrimidin-7(8H)-one] | 49.3 nM | 2.2 nM | –
Cc1nc(N)nc2c1cc(-c1cnc(O)nc1)c(=O)n2C1CCOCC1 [Compound 267, 2-Amino-6-(2-hydroxypyrimidin-5-yl)-4-methyl-8-(tetrahydro-2H-pyran-4-yl)pyrido[2,3-d]pyrimidin-7(8H)-one] | 10000 nM | 810 nM | –
Cc1nc(N)nc2c1cc(-c1cnc(O)nc1)c(=O)n2C(C)C [Compound 268, 2-amino-6-(2-hydroxypyrimidin-5-yl)-8-isopropyl-4-methylpyrido[2,3-d]pyrimidin-7(8H)-one] | 2520 nM | 300 nM | –
Cc1nc(N)nc2c1cc(C#N)c(=O)n2C1CCC1 [Compound 269, 2-Amino-8-cyclobutyl-4-methyl-7-oxo-7,8-dihydropyrido[2,3-d]pyrimidine-6-carbonitrile] | 2090 nM | 95 nM | –
C#Cc1cc2c(C)nc(N)nc2n(C2CCC2)c1=O [Compound 270, 2-Amino-8-cyclobutyl-6-ethynyl-4-methylpyrido[2,3-d]pyrimidin-7(8H)-one] | 657 nM | 110 nM | –
Cc1nc(N)nc2c1cc(-c1cnc3ccccc3c1)c(=O)n2[C@H]1CC[C@H](O)CC1 [Compound 271, 2-amino-8-(trans-4-hydroxycyclohexyl)-4-methyl-6-(quinolin-3-yl)pyrido[2,3-d]pyrirnidin-7(8H)-one] | 42 nM | 8.2 nM | –
COc1ccc(-c2cc3c(C)nc(NCC(F)F)nc3n([C@H]3CC[C@H](O)CC3)c2=O)cn1 [Compound 275, 2-(2,2-Difluoroethylamino)-8-(4-hydroxycyclohexyl)-6-(6-methoxypyridin-3-yl)-4-methylpyrido[2,3-d]pyrimidin-7(8H)-one] | 46.8 nM | 12 nM | –
CCNc1nc(C)c2cc(-c3cnc(OC)c(F)c3)c(=O)n([C@H]3CC[C@H](O)CC3)c2n1 [Compound 276, 2-(ethylamino)-6-(5-fluoro-6-methoxypyridin-3-yl)-8-(trans-4-hydroxycyclohexyl)-4-methylpyrido[2,3-d]pyrimidin-7(8H)-one] | 5.1 nM | 0.788 nM | –
